Earlier results in patent US6518456B1, “Process for the production of 1-(aminomethyl)-cyclohexyl-acetic acid in pure form” (Procos S.p.A., priority 2001, dated 2003).

Settings: extremely low toxicity; species and route not given

In the case of `NCC1(CC(=O)O)CCCCC1` [Gabapentin, 1-(aminomethyl)cyclohexyl-acetic acid], the LD50 is listed as greater than 8000 mg/kg.
